Source: ChEMBL document CHEMBL1201862, “PubChem BioAssay data set” (2004)
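In this assay, cells in 96-well plates receive the compound at five concentrations for 48 hours. Endpoints are linearly interpolated between the surrounding concentrations. At the GI50, growth is halved.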 Calls of active or inactive are those of the source. Rule as the data show it: active = GI50 up to about 1.1 µM and inactive = higher.

Legend:
Test in all cases: NCI anticancer screen, dose series, 48 h
[1] = system: 786-0
[2] = system: A498
[3] = system: COLO 205
[4] = system: HCT-15
[5] = system: HL-60
[6] = system: HT-29
[7] = system: LOX IMVI
[8] = system: M14
[9] = system: MOLT-4
[10] = system: NCI-H226
[11] = system: OVCAR-4
[12] = system: OVCAR-5
[13] = system: OVCAR-8
[14] = system: PC-3
[15] = system: RXF 393
[16] = system: SF-295
[17] = system: SK-MEL-28
[18] = system: SK-MEL-2
[19] = system: SW-620
[20] = system: BT-549

Measured: GI50

O=C(O)c1cc(-c2ccc3c(O)ccc(O)c3c2)ccc1O
16.9 µM: [4]
inactive: [1] 16.6 µM | [2] 17.4 µM | [3] 19.5 µM | [5] > 100 µM | [6] 18.8 µM | [7] 11.5 µM | [8] 21.9 µM | [9] 3.01 µM | [10] 19.7 µM | [11] 16.5 µM | [12] 18.3 µM | [13] 23.7 µM | [14] 12.9 µM | [15] 12.9 µM | [16] 18.2 µM | [17] 18.1 µM | [18] 17.2 µM | [19] 5.82 µM

COC(=O)C(C)(C)/N=C/N(C)C
> 100 µM: [4]
inactive: [1] > 100 µM | [2] > 100 µM | [3] > 100 µM | [5] 55.6 µM | [6] > 100 µM | [7] 68.2 µM | [8] > 100 µM | [9] > 100 µM | [10] > 100 µM | [11] > 100 µM | [12] > 100 µM | [13] > 100 µM | [15] 86.5 µM | [16] > 100 µM | [17] > 100 µM | [18] > 100 µM | [19] 28.4 µM

Cc1cnoc1/N=C1\C=C(Nc2oncc2C)C(=O)c2ccccc21
73.1 µM: [4]
inactive: [1] > 100 µM | [2] > 100 µM | [3] > 100 µM | [5] > 100 µM | [6] > 100 µM | [7] 23.3 µM | [8] > 100 µM | [9] > 100 µM | [10] > 100 µM | [11] > 100 µM | [12] > 100 µM | [13] 30.8 µM | [15] > 100 µM | [16] > 100 µM | [17] > 100 µM | [18] > 100 µM | [19] > 100 µM

O=C1CN(/N=C/c2ccc(-c3ccc(F)cc3)o2)C(=O)N1
inactive: [1] > 100 µM | [2] 25.2 µM | [3] 29.7 µM | [5] 55.6 µM | [7] 26.6 µM | [8] 75.3 µM | [9] 91.4 µM | [10] 32.2 µM | [12] > 100 µM | [13] > 100 µM | [14] > 100 µM | [15] > 100 µM | [16] 55.7 µM | [17] 25.4 µM | [18] 34.6 µM | [19] 43 µM
39 µM: [4]

C=C(C)CNC(=S)N(N)c1ccc2ccccc2c1
5.01 µM: [4]
inactive: [1] > 100 µM | [20] > 100 µM | [3] > 100 µM | [5] 57.3 µM | [6] 65.3 µM | [7] > 100 µM | [8] > 100 µM | [9] > 100 µM | [10] > 100 µM | [11] > 100 µM | [12] 27.7 µM | [13] > 100 µM | [14] 61.1 µM | [15] > 100 µM | [16] 94.2 µM | [17] > 100 µM | [19] > 100 µM

NCCOc1ccc(/C(=C(/Cl)c2ccccc2)c2ccccc2)cc1
6.55 µM: [4]
inactive: [1] 7.94 µM | [2] 19.1 µM | [3] 1.89 µM | [5] 3.74 µM | [6] 3.14 µM | [7] 4.05 µM | [8] 2.26 µM | [9] 3.14 µM | [10] 18.7 µM | [11] 13 µM | [12] 16.7 µM | [13] 14 µM | [15] 4.03 µM | [16] 14.4 µM | [17] 5.66 µM | [18] 14.4 µM | [19] 4.19 µM

COC(=O)C1=C(c2ccc3c(c2)OCO3)O[C@H](c2cc(OC)c(OC)c(OC)c2)[C@H]1COC(C)=O
active: [2] 0.352 µM | [3] 0.984 µM | [5] 0.49 µM | [16] 0.282 µM
inactive: [1] 4.12 µM | [6] 2.53 µM | [7] 8.91 µM | [8] 1.71 µM | [9] 3.03 µM | [10] 10.4 µM | [11] 7.48 µM | [12] 41.8 µM | [13] 5.04 µM | [15] 1.57 µM | [17] 12.2 µM | [18] 12.6 µM | [19] 3.87 µM
5.68 µM: [4]

O=P1(Oc2ccccc2)N(CCCl)CCN1c1ccccc1 (stereo not given)
> 100 µM: [4]
inactive: [1] > 100 µM | [2] 55 µM | [3] > 100 µM | [5] > 100 µM | [6] > 100 µM | [7] > 100 µM | [8] > 100 µM | [9] 61.8 µM | [10] > 100 µM | [11] 23.4 µM | [12] > 100 µM | [13] > 100 µM | [14] > 100 µM | [15] 58.5 µM | [16] > 100 µM | [17] > 100 µM | [18] > 100 µM | [19] > 100 µM
